{
  "source": "the supplement of paper PMC10290057",
  "note": "Structures can show the parent of a compound that is named as a salt.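 Note: Luminescence-based viability readout, five doses per compound, normalized against on-plate DMSO and empty-well controls, followed by dose-response curve fitting for every drug.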",
  "data": [
    {"tested_on": "HCT116", "assay": "efficacy (fitted maximal change in viability relative to DMSO control); higher = less cytotoxic (negative = loss of viability)", "details": "48 h", "units": {"efficacy": "%"}, "values": [
      {"smiles": "Cc1ccc(O)c(C(CCN(C(C)C)C(C)C)c2ccccc2)c1.Cl", "note": "(stereo not drawn) [Tolterodine tartrate]", "efficacy": -19.8},
      {"smiles": "O=C(CCN1CCN(C(=O)OCc2cc(Cl)cc(Cl)c2)CC1)c1ccc2[nH]c(=O)oc2c1", "note": "[PF-8380]", "efficacy": -11.3},
      {"smiles": "Nc1c2c(nc3ccccc13)CCCC2", "note": "[Tacrine hydrochloride]", "efficacy": -50.9},
      {"smiles": "Cn1cc(/C=C2\\C(=O)Nc3cccnc32)c2ccccc21", "efficacy": -35.8},
      {"smiles": "CC(C)(O)[C@H]1CC[C@@](C)([C@H]2[C@@H](O)C[C@@]3(C)[C@@H]4C[C@H](O[C@@H]5O[C@H](CO)[C@@H](O)[C@H](O)[C@H]5O)[C@H]5C(C)(C)[C@@H](O[C@@H]6OC[C@@H](O)[C@H](O)[C@H]6O)CC[C@@]56C[C@@]46CC[C@]23C)O1", "note": "[Astragaloside A]", "efficacy": 6.04},
      {"smiles": "CC1=CC(=C(O)C(=C1C\\C2=N\\CCN2)C)C(C)(C)C", "note": "[Oxymetazoline hydrochloride]", "efficacy": -19.1},
      {"smiles": "CN(C)N(C)C(=O)[C@@]1(Cc2ccccc2)CCCN(C(=O)[C@@H](Cc2c[nH]c3ccccc23)NC(=O)C(C)(C)N)C1", "note": "[Anamorelin]", "efficacy": -33.8},
      {"smiles": "Cc1onc(-c2ccccc2)c1-c1ccc([S+](N)(=O)[O-])cc1", "note": "[Valdecoxib]", "efficacy": -36.8},
      {"smiles": "COc1ccc(Cc2ccc(NC(N)=O)cc2)cc1-c1cccc(Cl)c1", "efficacy": -74.8},
      {"smiles": "NCCCC(N)(C(=O)O)C(F)F", "note": "(stereo not drawn) [Eflornithine Hydrochloride]", "efficacy": 19},
      {"smiles": "Cc1ccc(/C=N/NC(=O)c2ccccc2Oc2ccccc2)o1", "efficacy": -6.56},
      {"smiles": "CC(=O)O[C@H]1C[C@@H]2CC[C@@H]3[C@H](CC[C@@]4(C)[C@H]3C[C@H]([N+]3(C)CCCCC3)[C@@H]4OC(C)=O)[C@@]2(C)C[C@@H]1N1CCCCC1.[Br-]", "note": "[Vecuronium bromide]", "efficacy": -10.9},
      {"smiles": "CCCCN(CCCC)CC(O)c1cc(Cl)cc2c1-c1ccc(Cl)cc1/C2=C/c1ccc(Cl)cc1", "note": "(stereo not drawn) [Lumefantrine]", "efficacy": -26.5},
      {"smiles": "CC[C@H]1OC(=O)[C@H](C)[C@@H](O[C@H]2C[C@@](C)(OC)[C@@H](O)[C@H](C)O2)[C@H](C)[C@@H](O[C@@H]2O[C@H](C)C[C@H](N(C)C)[C@H]2O)[C@](C)(O)C[C@@H](C)C(=O)[C@H](C)[C@@H](O)[C@]1(C)O", "note": "[Erythromycin]", "efficacy": 23},
      {"smiles": "CC[C@H](C)C(=O)O[C@H]1C[C@H](O)\\C=C2\\C=C/[C@H](C)[C@H](CC[C@@H](O)C[C@@H](O)CC(O)=O)[C@@H]12", "note": "[Pravastatin sodium]", "efficacy": -7.8},
      {"smiles": "CCOC(=O)\\C1=C\\[C@@H](OC(CC)CC)[C@H](NC(C)=O)[C@@H](N)C1", "note": "[Oseltamivir phosphate]", "efficacy": 13},
      {"smiles": "COc1cc([C@@H]2c3cc4c(cc3[C@H](O)[C@H]3COC(=O)[C@H]23)OCO4)cc(OC)c1OC", "note": "[Podofilox]", "efficacy": -62.3},
      {"smiles": "CN(CCOc1ccc(C[C@H](Nc2ccccc2C(=O)c2ccccc2)C(=O)O)cc1)c1ccccn1", "note": "[GW-1929]", "efficacy": -7.57},
      {"smiles": "Clc1ccc(C(c2ccccc2Cl)C(Cl)Cl)cc1", "note": "(stereo not drawn) [Mitotane]", "efficacy": -92.3},
      {"smiles": "CC(=O)OCC(=O)[C@@]12\\N=C(C)/O[C@@H]1C[C@H]3[C@@H]4CCC/5=C/C(=O)/C=C\\[C@]5(C)[C@H]4[C@@H](O)C[C@]23C", "note": "[Deflazacort]", "efficacy": 9},
      {"smiles": "CC#CCn1c(N2CCC[C@@H](N)C2)nc2c1c(=O)n(Cc1nc(C)c3ccccc3n1)c(=O)n2C", "note": "[Linagliptin]", "efficacy": -31.7},
      {"smiles": "C[C@H](c1ccc(F)cc1CCCC(=O)O)N(c1cc(F)ccc1F)[S+](=O)([O-])c1ccc(Cl)cc1", "efficacy": -30.3},
      {"smiles": "C[C@](N)(Cc1ccc(O)c(O)c1)C(=O)O", "note": "[Methyldopa]", "efficacy": -16.9},
      {"smiles": "Clc1ccccc1CN1CCc2sccc2C1", "note": "[Ticlopidine hydrochloride]", "efficacy": -21.1},
      {"smiles": "C[C@H]1COC/2=C1/C(=O)C(=O)C3=C4CCCC(C)(C)C4=CC=C23", "note": "[Cryptotanshinone]", "efficacy": -30},
      {"smiles": "Cc1cc(C)c(/C=C2\\C(=O)Nc3ccccc32)[nH]1", "note": "[Semaxanib]", "efficacy": -29.1},
      {"smiles": "OC1=CC2=C(C(=C1)O)C(=O)\\C(=C(/O2)C3=CC(=C(O)C=C3)O)O", "note": "[Quercetin]", "efficacy": -10.2},
      {"smiles": "CC1=C(F)C=CC(=C1)N2C(=O)\\C=C/C3=C2C4=C([NH]C=C4)N=C3", "note": "[STK16-IN-1]", "efficacy": -45.7},
      {"smiles": "CCOc1cc(N)c(Cl)cc1C(=O)NCC1CN(Cc2ccc(F)cc2)CCO1", "note": "(stereo not drawn) [Mosapride citrate]", "efficacy": -28.4},
      {"smiles": "Cc1cccc(-c2nn(C(=S)Nc3ccccc3)cc2-c2ccnc3ccccc23)n1", "note": "[A-83-01]", "efficacy": -22.3},
      {"smiles": "C1C\\N=C(\\NC(C2CC2)C3CC3)O1", "note": "[Rilmenidine]", "efficacy": -6.97},
      {"smiles": "C=CC(=O)Nc1cccc(C)c1Nc1ncc2cc(-c3c(Cl)c(OC)cc(OC)c3Cl)ccc2n1", "note": "[BLU-9931]", "efficacy": -50.4},
      {"smiles": "COC12C(COC(N)=O)\\C3=C(/N1CC4C2N4C)C(=O)C(=C(N)/C3=O)\\C", "note": "(stereo not drawn) [Porfiromycin]", "efficacy": -81},
      {"smiles": "Cc1noc(-c2ccc(CSCCC(=O)O)cc2)c1NC(=O)OC(C)c1ccccc1Cl", "note": "(stereo not drawn)", "efficacy": -36.3},
      {"smiles": "CO[C@H]1CC[C@]2(CC1)CC3=C(C=C(C=C3)C4=CN=CC(=C4)C#CC)[C@@]2/5\\N=C(C)/C(=N5)N", "efficacy": -11.3},
      {"smiles": "CN[C@@H]1CN(C[C@H]1OC)C2=NC3=C(C=C2)C(=O)C(=C\\N3C4=NC=CS4)/C(O)=O", "note": "[Vosaroxin]", "efficacy": -17.8},
      {"smiles": "F\\C1=C\\N(C2CCCO2)C(=O)NC1=O", "note": "(stereo not drawn) [Tegafur]", "efficacy": -8.62},
      {"smiles": "O=[N+]([O-])c1cn2c(n1)OC[C@@H](OCc1ccc(OC(F)(F)F)cc1)C2", "note": "[PA-824]", "efficacy": -19.8},
      {"smiles": "CCN[C@H]1C[C@H](C)[S+](=O)([O-])c2sc([S+](N)(=O)[O-])cc21", "note": "[Dorzolamide hydrochloride]", "efficacy": -11},
      {"smiles": "C=CC(=O)N1CC(N2CCN(C(=O)CNc3cc(C4(C)CC4)c(Cl)cc3O)CC2)C1", "note": "[ARS-853]", "efficacy": -63.4},
      {"smiles": "O=C(O)CNC(=O)c1ncc(-c2cccc(Cl)c2)cc1O", "note": "[Vadadustat]", "efficacy": -15.6},
      {"smiles": "C[S+](=O)([O-])Oc1ccc2c(NC(N)=O)c(C(=O)c3ccc(Cl)cc3Cl)oc2c1", "note": "[Lirimilast]", "efficacy": -17.7},
      {"smiles": "O=S(=O)([O-])CCS", "note": "[Mesna]", "efficacy": -8.13},
      {"smiles": "CCOC(=O)[C@H]1O[C@@H]1C(=O)N[C@@H](CC(C)C)C(=O)NCCC(C)C", "note": "[Aloxistatin]", "efficacy": -5.94},
      {"smiles": "CC(=O)O[C@@]12CO[C@@H]1C[C@H](O)[C@]3(C)[C@@H]2[C@H](OC(=O)C4=CC=CC=C4)[C@]5(O)C[C@H](O)/C(=C(/[C@@H](O)C3=O)C5(C)C)C", "note": "[10-Deacetylbaccatin]", "efficacy": -50.2},
      {"smiles": "O=C(CCCCCCC(=O)Nc1ccccc1)NO", "note": "[Vorinostat (SAHA)]", "efficacy": -81},
      {"smiles": "CCN(CC)CCCC(C)Nc1ccnc2cc(Cl)ccc12", "note": "(stereo not drawn) [Chloroquine]", "efficacy": -24.3},
      {"smiles": "COC1(C[S+]([O-])c2ccccc2)CCN(CCc2c[nH]c3ccc(F)cc23)CC1", "note": "(stereo not drawn)", "efficacy": -18.2},
      {"smiles": "CCC(C)N(C)C(=O)c1cc2ccccc2c(-c2ccccc2Cl)n1", "note": "(stereo not drawn)", "efficacy": -46.4},
      {"smiles": "CSCC[C@@H](NC(=O)[C@@H](Cc1ccccc1)NC(=O)CNC(=O)CNC(=O)[C@@H](N)Cc1ccc(O)cc1)C(=O)O", "note": "[Metenkephalin]", "efficacy": -81.4},
      {"smiles": "CCN1\\C=C(C(O)=O)/C(=O)C2=C1C=C(N3CCN(C)CC3)C(=C2)F", "note": "[Pefloxacin]", "efficacy": 5.51},
      {"smiles": "CC(C)C[C@H](NC(=O)[C@H](Cc1ccccc1)NC(=O)OCc1ccccc1)C(=O)C=O", "note": "[Cathepsin S Inhibitor]", "efficacy": -64.5},
      {"smiles": "COc1cccc2c1C(=O)c1c(O)c3c(c(O)c1C2=O)C[C@@](O)(C(C)=O)C[C@@H]3O[C@H]1C[C@H](N)[C@H](O)[C@H](C)O1", "note": "[Daunorubicin]", "efficacy": -77.4},
      {"smiles": "COC(=O)N(CC(=O)O)Cc1cccc(OCc2nc(-c3ccc(Cl)cc3)oc2C)c1", "efficacy": -8.59},
      {"smiles": "C=CC(=O)N[C@H]1CCOC[C@H]1Nc1ncc2cc(-c3c(Cl)c(OC)cc(OC)c3Cl)ccc2n1", "note": "[BLU-554]", "efficacy": -30.8},
      {"smiles": "CC(=O)O[C@H]1C[C@@H]2CC[C@@H]3[C@H](CC[C@@]4(C)[C@H]3C[C@H]([N+]3(C)CCCCC3)[C@@H]4OC(C)=O)[C@@]2(C)C[C@@H]1[N+]1(C)CCCCC1", "note": "[Pancuronium bromide]", "efficacy": -8.83},
      {"smiles": "C\\C1=N\\N(C(=O)C1)C2=CC=CC=C2", "note": "[Edaravone]", "efficacy": -11.9},
      {"smiles": "O=C(O)c1ccc(-c2c[nH]c3ncc(-c4ccccc4)cc23)cc1C1CCCC1", "efficacy": -22.5},
      {"smiles": "OC(=O)C/1=C/C(=O)NC(=O)N1", "note": "[Orotic acid]", "efficacy": -16.5},
      {"smiles": "CN(C)[C@H]\\1[C@@H]2C[C@@H]\\3CC4=C(C(=C(NC(=O)CNC(C)(C)C)C=C4N(C)C)O)C(=O)C3=C(O)/[C@@]2(O)C(=O)\\C(=C1O)C(N)=O", "note": "[Tigecycline]", "efficacy": -18.8},
      {"smiles": "Nc1ncnc2ccccc12", "note": "[4-Quinazolinamine]", "efficacy": -11.9},
      {"smiles": "CC1=CC=C(C=C1)\\C2=N\\C3=CC=C(Cl)C=C3OC2", "note": "[AR-7]", "efficacy": -31.7},
      {"smiles": "O=C(Nc1ccc(F)c(C(F)(F)F)c1)Nc1nnc(-c2ccncc2)s1", "efficacy": -29},
      {"smiles": "COC1=CC=C(C=C1)/C2=C(O)/C(=O)C3=C(O)C=C(O)C(=C3O2)CC=C(C)C", "note": "[Icaritin]", "efficacy": -16.5},
      {"smiles": "CN(C)C(=O)c1cc2cnc(Nc3ccc(N4CCNCC4)cn3)nc2n1C1CCCC1", "note": "[Ribociclib (LEE011)]", "efficacy": -12.5},
      {"smiles": "C[C@](Cc1c[nH]c2ccccc12)(NC(=O)OC1C2CC3CC(C2)CC1C3)C(=O)NC[C@H](NC(=O)CCC(=O)O)c1ccccc1", "note": "(stereo partly drawn)", "efficacy": 9.82},
      {"smiles": "CC(=O)c1c(O)c(C)c(O)c(Cc2c(O)c3c(c(C(=O)/C=C/c4ccccc4)c2O)OC(C)(C)C=C3)c1O", "note": "[Rottlerin]", "efficacy": -8.89},
      {"smiles": "O=C(NCCCNc1nc(Nc2cccc(NC(=O)N3CCCC3)c2)ncc1I)c1cccs1", "note": "[BX-795]", "efficacy": -76.5},
      {"smiles": "NNc1nncc2ccccc12", "note": "[Apresoline]", "efficacy": 28.9},
      {"smiles": "CCC/1=C(/NC2=C(C=N[N]2C1=O)C#N)C3=CC=CC=C3C", "note": "[CPI-4203]", "efficacy": 17.2},
      {"smiles": "CC(C)NCC(O)c1ccc(O)c(O)c1", "note": "(stereo not drawn) [Isoprenaline hydrochloride]", "efficacy": -16.7},
      {"smiles": "O=C(CCCCCCC(=O)Nc1ccc([C@H]2O[C@@H](CSc3nc(-c4ccccc4)c(-c4ccccc4)o3)C[C@@H](c3ccc(CO)cc3)O2)cc1)NO", "note": "[Tubacin]", "efficacy": -23.7},
      {"smiles": "CCCCCCCCCCCCCCCC(=O)O[C@@H]1[C@@H](O)[C@@H](O)[C@@H]([C@H](NC(=O)[C@@H]2C[C@@H](CCC)CN2C)[C@H](C)Cl)O[C@@H]1SC.Cl", "note": "[Clindamycin palmitate]", "efficacy": -24.9}
    ]}
  ]
}
